Key:
[1] = Measurement of thermal stability of FMR-DAAs; type: physicochemical; conditions: PBS (pH 7.4), 24-hours incubation at 60° C.
Method: FMR-DAAs (100 mM stock solution, DMSO) was diluted with 1×PBS (pH7.4) to a final concentration of 0.05 mM. The FMR-DAAs solution was then incubated at 60° C. and kept from light exposure. […]

[2] = Measurement of viscosity sensitivity of FMR-DAAs in PBS-glycerol; type: physicochemical; conditions: free probe 0.1 mM in 1×PBS containing 0-80% glycerol, pH 7.4
Method: For free FMR-DAAs measurement, FMR-DAAs (100 mM stock solution, DMSO) was diluted in PBS-glycerol solution (1×PBS containing 0%, 20%, 40%, 50%, 60% and 80% glycerol, pH 7.4) to a final concentration of 0.1 mM. The solutions were transferred into 96-well micro-plate and the fluorescence was measure at corresponding Em wavelength mentioned above using SpectraMax M2 plate reader (corresponding Ex wavelength was used). The viscosity sensitivity was calculated using the following equation, where r is viscosity of the solvents, I is the emission intensity of the FMR-DAAs, C is a constant depending on the temperature, and x is the viscosity sensitivity (Zhou el, EJOC, 2011, 4773). The Ig, 50%/Iw value represents the ratio of fluorescent intensity of the 50% glycerol sample to that of the 0% glycerol sample.

[3] = UV-Vis spectra and calibration curve of FMR-DAAs (excitation/emission maxima, absorptivity); type: physicochemical; set-up: Absorptivity (ε): unit not given here; conditions: for Max. λEm / Max. λEx: PBS (pH 7.4) containing 50% glycerol, scan range 350 to 800 nm; for Absorptivity (ε): PBS (pH 7.4), Beer's Law
Method: The excitation and emission wavelengths of FMR-DAAs were measured by SpectraMax M2 plate reader using disposable cuvette (polymethyl methacrylate). UV-Vis spectra of FMR-DAAs were measured by scanning within a range from 350 to 800 nm with an increment of 1 nm. The wavelength at maximum absorbance (Ex) and emission (Em) of FMR-DAAs were recorded.
For plotting calibration curves, FMR-DAAs (100 mM stock solution, DMSO) were diluted into 1×PBS (pH 7.4) and the corresponding A. absorbance of FMR-DAAs was measured as a function of concentration (0.1, 0.05, 0.025 and 0.0125 mM). The absorptivity was calculated as described by Beer's Law. The spectra of molecular rotor designs are illustrated in FIG. 7 (panels (i)-(vi)).

S. aureus PBP4 [4] = biological target: T1, S. aureus PBP4 (Staphylococcus aureus, UniProt P72355); assay: In vitro real-time D,D-transpeptidation assay using Rf470 and diacetyl-L-lysine-D-alanine-D-alanine substrate; type: biochemical; conditions: for Effect of added antibiotic on D,D-transpeptidation activity (fluorescence signal increase): antibiotic added to Rf470/substrate/PBP4 reaction; for Effect on initial rate of fluorescence increase (PBP4 enzyme reaction): antibiotics 0.1 equiv. to the substrate
T1 sequence (P72355 25-431): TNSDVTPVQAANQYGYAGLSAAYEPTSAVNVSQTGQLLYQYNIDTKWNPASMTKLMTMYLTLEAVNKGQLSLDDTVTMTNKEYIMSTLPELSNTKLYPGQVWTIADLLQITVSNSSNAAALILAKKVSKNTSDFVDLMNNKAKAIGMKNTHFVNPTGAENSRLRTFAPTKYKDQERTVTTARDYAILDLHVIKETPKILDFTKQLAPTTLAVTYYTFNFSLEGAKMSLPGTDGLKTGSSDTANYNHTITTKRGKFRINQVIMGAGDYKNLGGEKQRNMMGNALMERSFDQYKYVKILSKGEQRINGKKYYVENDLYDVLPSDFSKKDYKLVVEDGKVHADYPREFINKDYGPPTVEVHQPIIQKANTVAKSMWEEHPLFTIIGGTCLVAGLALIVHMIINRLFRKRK
Source text: FIG. 12A depicts an exemplary scheme for the assay procedure for in vitro D,D-transpeptidation assays using Rf470 and isolated S. aureus PBP4.
FIG. 12E depicts screening of antibiotic effect on S. aureus PBP4 activity. Kanamycin and Chloramphenicol: ribosome activity inhibitors; Piperacillin, Ampicillin, Penicillin G, Carbenicillin and Cefoxitin are β-lactam antibiotics. A 1:10 ratio of antibiotics to the substrate was used.
We took advantage of the fact that FMR-DAAs are fluorogenic probes that fluoresce upon PG incorporation to develop a continuous, spectrophotometric assay to monitor the formation of transpeptidation product without the need of quenching and purification. The components of the assay included FMR-DAA probes as the fluorescence reporter, synthetic diacetyl-L-lysine-D-alanine-D-alanine as the substrate (acyl donor) and Staphylococcus aureus PBP4 enzyme. S. aureus PBP4 is known to have D,D-transpeptidation activity responsible for the highly cross-linked PG layer in staphylococci, as well as β-lactamase activity to degrade penicillin-like antibiotics.
Rf470, the synthetic substrate and S. aureus PBP4 were incubated in a 96-well plate and the emission fluorescence was measured overtime using a plate reader (5-minute interval, 1 hour in total, FIG. 12A). […] The formation of cross-linked product was confirmed by reverse-phase HPLC and high-resolution mass spectrometry (FIG. 12C, D).
(§1) We further evaluated the utility of this assay for in vitro high-throughput screening for antibiotics. We tested various antibiotics (0.1 equiv. to the substrate) and measured the initial rate of fluorescence increase (FIG. 12E). […] To further confirm the inhibitory effect of these β-lactams toward S. aureus PBP4, we performed a Nitrocefin assay, which tests PBP's β-lactamase activity, in the presence of the antibiotics. […] We also note that this assay can be conducted in an end-point manner, providing an efficient way to test a large number of samples since only a single measurement is required per sample. End-point assays potentially enable high-throughput applications for drug screening and transpeptidation reaction studies.

bacterial PG = assay: Wash-free labeling of bacterial PG with FMR-probe-D-Lys conjugates, fluorescence microscopy; type: cell-based
Source text: FIG. 3E depicts exemplary labeling of bacterial PG with HADA probe (panel (i)) and FMR-probe-D-Lys conjugates having the FMR probe moiety of formula (I), wherein R^1 consists of a —CN moiety (denoted as “Rot1DL” (panel (ii))) without washing prior to fluorescence. Compared to conventional FDAAs (e.g., HADA), FMR-DAAs eliminate the need to wash excess probe.
The presence of the carboxylic acid provides a site for covalent coupling of the FMR-probe to an available amino group on a D-amino acid backbone, such as D-amino-Ala or D-Lys. As FMR-probes having R^1 consist of a cyano moiety provide slight affinity for bacterial membranes, result in low levels of nonspecific labeling and some instability of the α,β-unsaturated malononitrile moiety under typical experimental conditions, such FMR-probes are less preferred for use. In such cases, FMR-probes having R^1 consisting of a carboxylic acid can prevent non-specific membrane binding and increase stability of the probe.

[5] = Quantum yield measurement (fluorescein standard); type: physicochemical; conditions: PBS (pH 7.4) containing 50% glycerol; fluorescein as standard
[6] = biological target: S. aureus Sortase A (SrtA) (Staphylococcus aureus, UniProt Q2FV99); assay: In vitro FMR-DAA assay with Sortase A and synthetic pentapeptide motif (LPETG); type: biochemical
Source text: (§2) In addition to PBPs, we tested the in vitro assay in other classes of transpeptidases: L,D-transpeptidase (Ldts) and Sortases. It is known that LdtA, encoded by V. cholerae vc1268, is responsible for 3′-3′ cross-linkage formation. […] On the other hand, S. aureus Sortase A (SrtA) is responsible for anchoring surface proteins to PG through a sequence-specific transpeptidation reaction. It recognizes a conserved protein LPXTG motif, and cross-links it with PG pentaglycine in S. aureus. […] Control experiments in the absence of the substrate led to no signal change.

[7] = system: LdtA, encoded by V. cholerae vc1268; assay: In vitro FMR-DAA assay with L,D-transpeptidase and synthetic tetrapeptide (diacyl-L-Ala-D-Glu-L-Lys-D-Ala); type: biochemical; conditions: Rf470 + LdtA + synthetic tetrapeptide
Source text: as §2

S. aureus PBP4 [8] = biological target: T1, S. aureus PBP4; assay: Nitrocefin assay of PBP4 β-lactamase activity in the presence of antibiotics; type: biochemical; conditions: in the presence of the antibiotic
Source text: FIG. 12F depicts β-lactamase activity of S. aureus PBP4 in the presence of antibiotics. Nitrocefin degradation by PBP4 results in an increase of absorbance at 500 nm, which is used to measure β-lactamase activity. Low activity stands for a strong inhibition effect of the antibiotics toward PBP4, and vice versa. Values are normalized to the “no antibiotic” sample.
as §1

Row | Thermo-stability (signal retention of absorbance vs initial value) [1] | Viscosity sensitivity (χ) [2] | Max. λEm [3] | Max. λEx [3] | Absorptivity (ε) [3] | SMILES | Effect on initial rate of fluorescence increase (PBP4 enzyme reaction) (S. aureus PBP4 [4]) | other results
1 | 80.0 ± 1.1% | 0.025 ± 0.003 | 450 | 400 | 109538 | NC(CNC(=O)c1cc2ccc(O)cc2oc1=O)C(=O)O (centres unmarked) [HADA, reference compound] |  | 
2 |  |  |  |  |  | O=C(N[C@H](CO)[C@H](O)c1ccc([N+](=O)[O-])cc1)C(Cl)Cl [Chloramphenicol] |  | Effect of added antibiotic on D,D-transpeptidation activity (fluorescence signal increase) (S. aureus PBP4 [4]): comparable to the non-treated sample
3 |  |  |  |  |  | N#CC(C#N)=Cc1ccc2c(c1)CCCN2CCC(=O)NCCCC[C@@H](N)C(=O)O [Rotor No. 1, N6-(3-(6-(2,2-dicyanovinyl)-3,4-dihydroquinolin-1(2H)-yl)propanoyl)-D-lysine] |  | Non-specific affinity to other cellular structures / membranes (bacterial PG; FIG. 3G, no washing): low non-specific affinity to other cellular structures; Incorporation into PG sacculi (bacterial PG; labeled bacterial PG, FIG. 3F): covalently incorporated into PG sacculi
4 | 96.9 ± 9.8% | 0.67 ± 0.003 | 660 | 490 | 25409 | N#CC(=Cc1ccc(-c2ccc3c(c2)CCCN3CCC(=O)O)s1)C(=O)NCCCCC(N)C(=O)O (stereo in doubt) [Rf490, (E)-N^6-(3-(5-(1-(2-carboxyethyl)-1,2,3,4-tetrahydroquinolin-6-yl)thiophen-2-yl)-2-cyanoacryloyl)-L-lysine] |  | Quantum Yield (ϕ) [5]: 0.035; Red-shift in Max. λEX compared to Rf470 [3]: 20 nm
5 |  |  |  |  |  | CC1(C)S[C@@H]2[C@H](NC(=O)Cc3ccccc3)C(=O)N2[C@H]1C(=O)O [Penicillin G] | partial inhibition | 
6 |  |  |  |  |  | CC1(C)S[C@@H]2[C@H](NC(=O)[C@H](N)c3ccccc3)C(=O)N2[C@H]1C(=O)O [Ampicillin] | partial inhibition | Inhibition of PBP4 β-lactamase activity (in words) (S. aureus PBP4 [8]): did not inhibit PBP4s β-lactamase activity effectively
7 |  |  |  |  |  | CC1(C)S[C@@H]2[C@H](NC(=O)C(C(=O)O)c3ccccc3)C(=O)N2[C@H]1C(=O)O (some centres unmarked) [Carbenicillin] | inhibited the enzyme reaction almost completely | 
8 | 99.8 ± 1.2% | 0.683 ± 0.013 | 490 | 420 | 19761 | N#C/C(=C\c1ccc2c(c1)CCCN2CCC(=O)NCCCC[C@@H](N)C(=O)O)C(=O)O [Rf420, (E)-N6-(3-(6-(2-carboxy-2-cyanovinyl)-3,4-dihydroquinolin-1(2H)-yl)propanoyl)-D-lysine] |  | Quantum Yield (ϕ) [5]: 0.012
9 |  |  |  |  |  | CCN1CCN(C(=O)N[C@@H](C(=O)N[C@@H]2C(=O)N3[C@@H]2SC(C)(C)[C@@H]3C(=O)O)c2ccccc2)C(=O)C1=O [Piperacillin] | did not have a significant effect | Inhibition of PBP4 β-lactamase activity (in words) (S. aureus PBP4 [8]): did not inhibit PBP4s β-lactamase activity effectively
10 |  |  |  |  |  | CO[C@@]1(NC(=O)Cc2cccs2)C(=O)N2C(C(=O)O)=C(COC(N)=O)CS[C@@H]21 [Cefoxitin] | inhibited the enzyme reaction almost completely | Effect of added antibiotic on D,D-transpeptidation activity (fluorescence signal increase) (S. aureus PBP4 [4]): total inhibition

Row | SMILES | Thermo-stability (signal retention of absorbance vs initial value) [1] | Viscosity sensitivity (χ) [2] | Max. λEm [3] | Max. λEx [3] | Absorptivity (ε) [3] | Effect on initial rate of fluorescence increase (PBP4 enzyme reaction) (S. aureus PBP4 [4]) | other results
11 | N#C/C(=C\c1ccc(-c2ccc3c(c2)CCCN3CCC(=O)NCCCC[C@@H](N)C(=O)O)s1)C(=O)O [Rf470, (E)-N6-(3-(6-(5-(2-carboxy-2-cyanovinyl)thiophen-2-yl)-3,4-dihydroquinolin-1(2H)-yl)propanoyl)-D-lysine] | 99.4 ± 1.4% | 0.642 ± 0.022 | 640 | 470 | 33106 |  | Quantum Yield (ϕ) [5]: 0.042; Rf470 signal over time with Sortase A [6]: increase of Rf470 signal over time; Fluorescence signal over time with LdtA [7]: time-lapse increase of fluorescence signal; Probe fluorescence intensity over time (D,D-transpeptidation signal) (S. aureus PBP4 [4]; probe + synthetic substrate + S. aureus PBP4, 96-well plate, 5-minute interval, 1 hour): increase in fluorescence intensity overtime

Reference: patent publication US11168077B2, “Molecular rotor-based D-amino acids as tools for imaging peptidoglycan biosynthesis” (Indiana University Research and Technology Corporation, priority 2018, dated 2021)
